Source: US20230338316A1, “ABBAPOLINS AS INHIBITORS AND DEGRADERS OF POLO-LIKE KINASES” (UNIVERSITY OF SOUTH CAROLINA, priority 2022, published 2023)

Tests used:
[1] = tested on: PC3 prostate cancer cells; test: MTT cell viability assay, PC3; assay type: cell-based; settings: MTT, 72 hours
Procedure: PC3 prostate cancer cells were maintained in DMEM (Invitrogen™, Carlsebad, CA) supplemented with 10% FBS or Corning® Nu-serum™(BD™ Biosciences, Franklin Lakes, NJ) and 1% penicillin/streptomycin (Invitrogen™) in a humidified incubator and 5% CO2 at 37° C.
Exponentially growing cells were plated in 96-well dishes. Dose response curves were used to treat cells for 72 hours with inhibitors. Following the three-day treatment, cell viability was measured using the MTT (3-(4,5-dimethylthiazol-2-yl)-2,5-diphenyltetrazolium bromide) colorimetric assay. Cells were incubated for 3 hours with MTT allowing viable cells to metabolize the tetrazolium dye to a purple colored solution. Absorbance measurements (595 nm) were quantified using a DTX 880 plate reader and IC50 values were generated for FLIPs.

[2] = tested on: SH-SY5Y neuroblastoma cells overexpressing PLK1; test: Cell viability assay in neuroblastoma cells; assay type: cell-based
Procedure: (§1) Abbapolin compounds activity was evaluated in neuroblastoma cells. […] Further, abbapolins induced PLK1 degradation in SH-SY5Y cells (FIG. 14-16).

[3] = tested on: PC3 prostate cancer xenografts; test: PC3 prostate cancer xenograft study; assay type: in vivo, athymic nude mice
Procedure: The efficacy of promising abbapolin compounds were tested in multiple cancer cell lines. […] To do so, athymic nude mice were injected in their flanks with 2.7×10^6 PC3 prostate cancer cells. After the tumors established at 13 days, 5-8 mice per group were treated with 6359 and 6369 daily for 5 days (M-F) for a total of 15 days. […] This is in agreement with the PLK1 degradation in the xenograft tumor.

[4] = Solubility in PBS; assay type: physicochemical; settings: expressed as IP dose
[5] = tested on: HOP-92; test: Single dose cell viability assay, HOP-92; assay type: cell-based; settings: HOP-92 (NSCLC), single dose 10 μM
Procedure: (§2) Lead abbapolin compounds were tested in multiple cancer cell lines, including non-small cell lung cancer (NSCLC) cells, melanoma cells, colon cancer cells, central nervous system (CNS) cancer cells, prostate cancer cells, renal cancer cells, and breast cancer cells. Each of these cancer cells lines were sensitive to the lead abbapolin compounds in a cell viability assay, including 6184 (Table 3), 6277 (Table 4), 6279 (Table 5), 6355 (Table 6), 6359 (Table 7), 6369 (Table 8), and 6421 (Table 9).

[6] = tested on: MOLT-4; test: Single dose cell viability assay, MOLT-4; assay type: cell-based; settings: MOLT-4 (Leukemia), single dose 10 μM
Procedure: as §2

[7] = tested on: RPMI-8226; test: Single dose cell viability assay, RPMI-8226; assay type: cell-based; settings: RPMI-8226 (Leukemia), single dose 10 μM
Procedure: as §2

[8] = tested on: CCRF-CEM; test: Single dose cell viability assay, CCRF-CEM; assay type: cell-based; settings: CCRF-CEM (Leukemia), single dose 10 μM
Procedure: as §2

[9] = tested on: NCI-H522; test: Single dose cell viability assay, NCI-H522; assay type: cell-based; settings: NCI-H522 (NSCLC), single dose 10 μM
Procedure: as §2

[10] = target: T1, PLK1 (Homo sapiens, UniProt P53350); test: PLK1 degradation in HeLa cells; assay type: cell-based; parameters: endogenous in cells; settings: HeLa cell line, 24, 48 and 72 hours
T1 sequence (P53350 whole entry): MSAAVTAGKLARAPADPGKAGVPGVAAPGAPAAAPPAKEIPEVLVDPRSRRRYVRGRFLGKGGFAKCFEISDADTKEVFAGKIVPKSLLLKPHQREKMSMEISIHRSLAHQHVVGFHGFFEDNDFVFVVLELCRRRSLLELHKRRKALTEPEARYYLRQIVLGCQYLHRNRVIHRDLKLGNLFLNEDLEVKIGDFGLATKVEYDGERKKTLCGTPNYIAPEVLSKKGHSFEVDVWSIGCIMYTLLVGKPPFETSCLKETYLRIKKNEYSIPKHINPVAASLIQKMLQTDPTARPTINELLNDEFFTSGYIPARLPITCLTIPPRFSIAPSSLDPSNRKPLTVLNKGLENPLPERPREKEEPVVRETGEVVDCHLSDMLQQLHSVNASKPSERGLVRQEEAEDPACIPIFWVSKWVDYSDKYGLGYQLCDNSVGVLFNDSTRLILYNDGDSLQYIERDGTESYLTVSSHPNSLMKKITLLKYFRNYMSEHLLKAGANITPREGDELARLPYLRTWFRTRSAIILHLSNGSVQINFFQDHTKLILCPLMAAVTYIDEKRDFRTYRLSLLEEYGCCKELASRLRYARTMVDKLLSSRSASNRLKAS
Procedure: (§3) For example, PC3 cells were treated with varying dosages of abbapolin 6369, and percent of PLK1 degradation was measured at 24 hours (FIGS. 8A-8B). HeLa cells were treated with 25 μM abbapolin 6369, and time points shown in the assay were 24 hours, 48 hours, and 72 hours (FIGS. 9A-9B). PC3 cells were treated with varying dosages of abbapolin 6329, and percent of PLK1 degradation was measured at 24 hours (FIGS. […]). HeLa cells were treated with varying dosages of abbapolin 6329, and time points shown in the assay were 24 hours, 48 hours, and 72 hours (FIGS. 11A-11B).

[11] = target: T1, PLK1; test: PLK1 degradation in SH-SY5Y cells; assay type: cell-based; parameters: endogenous in cells
Procedure: as §1

[12] = target: T1, PLK1; test: Cellular thermal shift assay (CETSA); assay type: cell-based; parameters: endogenous in cells; host or cells: PC3 prostate cancer cells
Procedure: Cellular thermal shift assay (CETSA) was performed with PC3 cells cultured in RPMI medium supplemented with 10% FBS. For an initial determination of the melting profile of PLK1 AND PLK3, cells dispensed into 96-well PCR plates in the above medium (6000 cells/well in 50 μL) were subjected to temperature gradient (38-60° C.) for 10 min. […] Centrifugation was performed at 14000 rpm to sediment the denatured protein content. Supernatant was collected and subjected to SDS-PAGE, and immunodetection was performed using anti-PLK1 and anti-PLK3 antibodies. PLK1 and PLK3 bands were quantified on a LI-COR C-Digit Blot Scanner, and Tagg and Tagg values were calculated for both proteins. In subsequent experiments, cells were treated at increasing doses (3.0, 1.0, 0.3, 0.1, 0.03 μM) of inhibitors together with DMSO control, for 2 h. Cells were then subjected to heat shock at Tagg for 10 min, and unstable protein was removed by centrifugation step. Following immuno-blotting, bands of stable PLK1 and PLK3 were quantified, normalized to loading control and plotted using GraphPad Prism software. EC50 values for inhibitors were calculated. […] The EC50 of the peptides were determined from the curve fit of the dose response.

[13] = target: T1, PLK1; test: PLK1 degradation in PC3 cells; assay type: cell-based; parameters: endogenous in cells; host or cells: PC3 prostate cancer cells; settings: PC3 cell line, 24 hours
Procedure: as §3

3-(4-octylbenzamido)phenyl phosphate [compound 6369]
IC50 [1]: 2300 ± 900 nM
IC50 [2]: 232000 ± 55000 nM
growth of PC3 tumors ([3]; 6359 100 mg/kg oral gavage, 6369 40 mg/kg IP, daily 5 days (M-F), total 15 days): slow the growth of PC3 tumors
PLK1 loss in the xenograft tumor ([3]; isolated PC3 xenograft tumors): significantly more PLK1 loss compared to PBS and 6359
limit of solubility in PBS [4]: 40 mg/kg
Cells Remaining (%) [5]: 43.19%
Cells Remaining (%) [6]: 58.19%
Cells Remaining (%) [7]: 39.13%
Cells Remaining (%) [8]: 24.97%
Cells Remaining (%) [9]: 33.06%
PLK1 degradation [10]: degradation of PLK1
PLK1 degradation [11]: degradation of PLK1
EC50 [12]: 150 nM
PLK1 degradation [13]: degradation of PLK1
